The text below walks through data of US20080095764A1, “Use of genetically-and epigenetically-altered protocadherins in methods of diagnosing, prognosing, and treating cancer” (THE TRUSTEES OF COLUMBIA UNIVERSITY IN THE CITY OF NEW YORK, priority 2004, published 2008).

In this assay the test system is PCDH8 expression in MDA-MB-435s cells. The assay can be described thus: 5-aza-deoxycytidine treatment, reactivation of PCDH8 expression (RT-PCR). The format is cell-based, human. The following applies: MDA-MB-435s breast cancer cells with methylated PCDH8 promoter, 1 μM 5-aza-deoxycytidine for 72 hours, vs PBS control. As to the method: Cells were lysed in solution D, and RNA was separated by CsCl. RNA was resuspended in sodium acetate, and reprecipitated with ethanol. The pellet was dissolved in DEPC-treated water. RNA was primed with random hexamers, and reverse-transcribed with Superscript II reverse transcriptase (Invitrogen).
cDNA was synthesized from RNA primed with random hexamers (Amersham). Primers used for RT-PCR are below: DIAPH3: […] (SEQ ID NO:74, […] (SEQ ID NO:75). PCDH8: TGGCGGTGTGGAAAGGACA (SEQ ID NO:75), […] (SEQ ID NO:76). For reactivation studies, cells were treated with 1 μM 5-aza-deoxycytidine for 72 hours.
Cells were plated to 20% confluence, and treated with fresh 1 micromolar 5-aza-deoxycytidine for 72 h. RNA and cDNA were prepared from the cells and subjected to PCR.

“Also recorded” adds a separate entry of the source.

Take `Nc1ncn([C@H]2C[C@H](O)[C@@H](CO)O2)c(=O)n1` [5-aza-deoxycytidine]: the “PCDH8 expression after treatment” value is listed as “restored; also recorded: reactivated”.
